Test results published in patent US20070254864A1, “CHROMIUM COMPLEXES” (Mandrillus Pharma, LLC, priority 2006, published 2007).

Test system: db/db mice (BKS.Cg-m+/+Lepr^db/J)
Assay: In vivo efficacy: control of body mass in db/db mice
Conditions: five week old at start, ad libitum p.o. in drinking water (5 mM chromium, pH 5.8), on average 1 mg/kg/day, over 22 weeks, control mice receiving water reached 43 g
Procedure: The mice were otherwise fed normal chow. Over the course of 22 weeks, the mice consumed on average 1 mg/kg/day of the compound. Mice on treatment reached an average mass of 37 g, while control mice receiving water reached an average mass of 43 g.

Chromium Quinolinate [Example 1]
average mass reached: 37 g
